Structures are written as SMILES. Converted amounts (≈) assume the structure as drawn. “And” between values parts separate entries of the source, which are not always exact repeats. Identical values can stand only once. Like-named read-outs stand apart in the source and are kept apart here.

Data set [1] relates to M. smegmatis (ATCC 14468). As to the kind of experiment: Microtiter broth dilution MIC against M. smegmatis (ATCC 14468). It counts as cell-based. The note with it: Mycolicibacterium smegmatis, ATCC14468, 72 h, 37 °C, MTT.
The test system of data set [2] is M. smegmatis mc^2155. As to the kind of experiment: Broth dilution MIC against M. smegmatis mc^2155. The note with it: Mycolicibacterium smegmatis, 72 h. It counts as cell-based. On the technique in general: Broth dilution looks for growth in wells or tubes with falling amounts of substance.
For data set [3], the system named is M. fortuitum (ATCC 6841). Briefly: Broth dilution MIC against M. fortuitum. The format is cell-based. Conditions: Mycolicibacterium fortuitum, ATCC6841, 72 h.
Data set [4] has as its system M. phlei (ATCC 11758). As to the kind of experiment: Broth dilution MIC against M. phlei. The note with it: Mycolicibacterium phlei, ATCC11758, 72 h. The format is cell-based.
Data set [5] has as its system M. bovis BCG (ATCC 35734). As to the kind of experiment: microbe, parasite or virus in culture. The note with it: Mycobacterium tuberculosis variant bovis BCG, 336 h, read-out: MIC M. bovis BCG. The format is cell-based.
The subject of data set [6] is S. aureus EMRSA-15. Briefly: Broth dilution MIC against EMRSA-15. It counts as cell-based. Conditions: Staphylococcus aureus, EMRSA15, 18 h.
For data set [7], the system named is S. aureus EMRSA-16. Briefly: Broth dilution MIC against EMRSA-16. The format is cell-based. The note with it: Staphylococcus aureus, EMRSA16, 18 h.
The target in data set [8] is T1, M. tuberculosis MurE ligase (Mycobacterium tuberculosis, UniProt P9WJL3).
T1 construct: made in house; host or cells: E. coli BL21(DE3)pLysS
As to the kind of experiment: M. tuberculosis MurE inhibition assay (phosphate colorimetric detection). It counts as biochemical. The note with it: tested at 1000, 300, 100 and 30 µM; IC50 from plot of percent inhibition vs. concentration; read-out: IC50 Mtb MurE.

For data set [9], the system named is human diploid embryonic lung cell line MRC-5. As to the kind of experiment: XTT cytotoxicity assay on MRC-5 cells. It counts as cell-based. Conditions: for Metabolic active MRC-5 cells (%): XTT. For orientation: Tetrazolium dyes change colour on reduction, which living cells bring about.
Data set [10] concerns EMRSA-15 and -16. As to the kind of experiment: Broth dilution MIC against epidemic MRSA strains. The format is cell-based, S. aureus. The note with it: Staphylococcus aureus, range over both strains and the compounds named.
Data set [11] addresses T1, M. tuberculosis MurE ligase. Set-up: method as in PMID 21622974. The note with it: positive control; read-out: IC50 Mtb MurE; cited from earlier work.

T1 sequence (P9WJL3 whole entry): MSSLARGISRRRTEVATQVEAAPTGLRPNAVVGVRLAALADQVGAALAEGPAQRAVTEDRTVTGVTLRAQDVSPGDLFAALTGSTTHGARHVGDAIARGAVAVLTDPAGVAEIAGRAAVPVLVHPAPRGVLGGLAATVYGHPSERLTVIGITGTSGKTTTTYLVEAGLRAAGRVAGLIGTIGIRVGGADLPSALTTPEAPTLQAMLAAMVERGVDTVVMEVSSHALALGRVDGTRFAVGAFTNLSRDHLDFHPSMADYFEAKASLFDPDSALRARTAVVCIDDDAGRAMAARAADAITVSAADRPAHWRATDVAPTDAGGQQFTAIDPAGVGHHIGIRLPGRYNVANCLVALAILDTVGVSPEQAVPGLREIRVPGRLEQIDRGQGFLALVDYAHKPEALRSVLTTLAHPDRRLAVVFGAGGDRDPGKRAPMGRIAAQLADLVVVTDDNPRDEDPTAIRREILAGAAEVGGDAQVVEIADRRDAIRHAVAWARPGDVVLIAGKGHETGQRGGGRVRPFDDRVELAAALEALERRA

The term IC50 denotes the concentration needed to halve the response being measured. Take `CCCCCCCCCCC#Cc1cc(=O)c2ccccc2n1C` [Compound 8n, 1-Methyl-2-(1'-dodecynyl)-4(1H)-quinolone]: the MIC in data set [1] was 0.5 µg/mL (≈ 1.55 µM); in data set [2], 1 µg/mL and 3.1 µM; in [3], 0.5 µg/mL and 1.5 µM; in data set [4], 1 µg/mL and 3.1 µM; in data set [5], 25 µg/mL and 77.4 µM; in [6], 2 µg/mL and 6.2 µM. For the same compound, the MIC is 4 µg/mL and 12.4 µM in data set [7]; 2 µg/mL to 8 µg/mL and 5.5 µM to 22.8 µM in data set [10]. Further, the half-maximal inhibitory concentration (IC50) in [8] stood at 251 µM. Besides, the “Metabolic active MRC-5 cells (%)” value in data set [9] (10 µM) was 101 ± 0.85%; in data set [9] (30 µM), 100 ± 0.72%; in [9] (60 µM), 100 ± 0.81%; in data set [9] (100 µM), 100 ± 0.82%. The “toxicity to MRC-5 cell line (in words)” value in data set [9] (at / up to 100 µM) is on record as “devoid of toxicity”.
As for `CCCCCCCC/C=C\CCCCc1cc(=O)c2ccccc2n1C` [1-Methyl-2-[(5Z)-tetradecenyl]-4(1H)-quinolone], in data set [11], the IC50 was 36 µM.

Source of the values: PMC3460366, “Synthesis and Antibacterial Evaluation of a New Series of N-Alkyl-2-alkynyl/(E)-alkenyl-4-(1H)-quinolones” (Molecules, 2012).
